Measured values: US20250059182A1, “SOS1 INHIBITORS” (Mirati Therapeutics, Inc., priority 2021, published 2025)
Where a name gives a salt, the structure may show the parent alone. Read-outs that look alike come from different tables or passages of the source.

How the values were obtained:
[1] = target: T1, recombinant human SOS1 polypeptide (amino acids 560-1049) (Homo sapiens, UniProt Q07889); experiment: HTRF displacement assay: inhibition of labeled tracer binding to SOS1; conditions: Table A1, Morrison equation for competitive binding
T1 construct: corresponding to amino acids 560-1049, expressed in E. Coli; made in house; host or cells: E. coli
T1 sequence (Q07889 560-1049): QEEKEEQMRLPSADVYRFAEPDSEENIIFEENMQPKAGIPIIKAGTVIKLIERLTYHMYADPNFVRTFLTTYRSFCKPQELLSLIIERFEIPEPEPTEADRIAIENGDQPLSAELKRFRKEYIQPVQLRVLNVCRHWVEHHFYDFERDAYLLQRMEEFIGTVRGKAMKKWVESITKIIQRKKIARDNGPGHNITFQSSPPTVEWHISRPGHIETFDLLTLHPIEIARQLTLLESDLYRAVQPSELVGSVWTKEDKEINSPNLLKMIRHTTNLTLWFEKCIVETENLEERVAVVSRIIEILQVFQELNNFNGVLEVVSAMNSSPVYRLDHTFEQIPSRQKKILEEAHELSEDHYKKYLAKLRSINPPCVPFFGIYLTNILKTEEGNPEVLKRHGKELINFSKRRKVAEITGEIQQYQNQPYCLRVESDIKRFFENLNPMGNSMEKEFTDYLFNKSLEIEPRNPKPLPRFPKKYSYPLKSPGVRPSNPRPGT

[2] = test system: pERK in MKN1 cells; experiment: pERK inhibition, In-Cell Western (LI-COR Odyssey), MKN1 cells; format: cell-based; conditions: Homo sapiens
Summary of the method: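 IC50 was fitted from % pERK inhibition, calculated as the GAPDH-normalised pERK signal of each well divided by the vehicle mean. Signal was imaged at 700 and 800 nm after fixation, methanol permeabilisation and dual antibody staining. Before fixation, MKN1 cells had received compound for about 0.5–1 h at 37 °C, top concentration 10 µM, nine 3-fold dilutions.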

[3] = MKN-1, Table B1, MKN1 or H358 cells (table does not say which), 0.5-1 hour incubation, read-out: IC50 (nM), pERK inhibition
[4] = MKN-1, read-out: IC50 (nM), pERK inhibition

SMILES | Ki [1] | IC50 [2, 3] | IC50 [2, 4]
Cc1c(C#N)cccc1[C@@H](C)Nc1nnc(C)c2cnc(N3CCc4c(ncn4C)C3)cc12 [Example P-45, (R)-2-methyl-3-(1-((4-methyl-7-(1-methyl-1,4,6,7-tetrahydro-5H-imidazo[4,5-c]pyridin-5-yl)pyrido[3,4-d]pyridazin-1-yl)amino)ethyl)benzonitrile] | 0.777 nM | 176 nM | 
Cc1c(C#N)cccc1[C@@H](C)Nc1nnc(C)c2cnc(N3CCc4ncn(C)c4C3)cc12 [Example P-57, (R)-2-methyl-3-(1-((4-methyl-7-(3-methyl-3,4,6,7-tetrahydro-5H-imidazo[4,5-c]pyridin-5-yl)pyrido[3,4-d]pyridazin-1-yl)amino)ethyl)benzonitrile] | 1.17 nM | 914 nM | 
COC1(c2cc3c(N[C@H](C)c4cccc(C#N)c4C)nnc(C)c3cn2)CCN(C)CC1 [Example P-69, (R)-3-(1-((7-(4-methoxy-1-methylpiperidin-4-yl)-4-methylpyrido[3,4-d]pyridazin-1-yl)amino)ethyl)-2-methylbenzonitrile] | 51.8 nM | 849 nM | 
COC1(c2cc3c(N[C@H](C)c4cccc(C#N)c4C)nnc(C)c3cn2)CCN(C(C)=O)CC1 [Example P-75, (R)-3-(1-((7-(1-acetyl-4-methoxypiperidin-4-yl)-4-methylpyrido[3,4-d]pyridazin-1-yl)amino)ethyl)-2-methylbenzonitrile] | 17.6 nM | 568 nM | 
COC1(c2cc3c(N[C@H](C)c4cccc(C#N)c4C)nnc(C)c3cn2)CCOCC1 [Example P-81, (R)-3-(1-((7-(4-methoxytetrahydro-2H-pyran-4-yl)-4-methylpyrido[3,4-d]pyridazin-1-yl)amino)ethyl)-2-methylbenzonitrile] | 61.7 nM | 565 nM | 
COC1(c2cc3c(N[C@H](C)c4cccc(C#N)c4C)nnc(C)c3cc2F)CCN(C)CC1 [Example P-153, (R)-3-(1-((6-fluoro-7-(4-methoxy-1-methylpiperidin-4-yl)-4-methylphthalazin-1-yl)amino)ethyl)-2-methylbenzonitrile] | 16.6 nM | 909 nM | 
COC1(c2cc3c(N[C@H](C)c4cccc(C#N)c4C)nnc(C)c3cc2F)CCN(C(C)=O)CC1 [Example P-159, (R)-3-(1-((7-(1-acetyl-4-methoxypiperidin-4-yl)-6-fluoro-4-methylphthalazin-1-yl)amino)ethyl)-2-methylbenzonitrile] | 2.2 nM | 100 nM | 
COC1(c2cc3c(N[C@H](C)c4cccc(C#N)c4C)nnc(C)c3cc2F)CCOCC1 [Example P-165, (R)-3-(1-((6-fluoro-7-(4-methoxytetrahydro-2H-pyran-4-yl)-4-methylphthalazin-1-yl)amino)ethyl)-2-methylbenzonitrile] | 4.66 nM | 352 nM | 
Cc1nnc(N[C@H](C)c2cccc(C(C)(F)F)c2F)c2cc(N3CCOCC3)ncc12 [Example P-169, (R)-N-(1-(3-(1,1-difluoroethyl)-2-fluorophenyl)ethyl)-4-methyl-7-morpholinopyrido[3,4-d]pyridazin-1-amine] | 0.827 nM | 71.4 nM | 
Cc1nnc(N[C@H](C)c2cccc(C(C)(F)F)c2F)c2cc(N(C)C)ncc12 [Example P-170, (R)-N1-(1-(3-(1,1-difluoroethyl)-2-fluorophenyl)ethyl)-N7,N7,4-trimethylpyrido[3,4-d]pyridazine-1,7-diamine] | 2.18 nM | 192 nM | 
Cc1nnc(N[C@H](C)c2cccc(C(C)(F)F)c2F)c2cc(N3CCN4CCOC[C@@H]4C3)ncc12 [Example P-171, N-((R)-1-(3-(1,1-difluoroethyl)-2-fluorophenyl)ethyl)-7-((S)-hexahydropyrazino[2,1-c][1,4]oxazin-8(1H)-yl)-4-methylpyrido[3,4-d]pyridazin-1-amine] | 0.425 nM | 28.5 nM | 
Cc1c(C#N)cccc1[C@@H](C)Nc1nnc(C)c2cc(F)c(-c3ccc(=O)n(C)c3)cc12 [Example P-172, (R)-3-(1-((6-fluoro-4-methyl-7-(1-methyl-6-oxo-1,6-dihydropyridin-3-yl)phthalazin-1-yl)amino)ethyl)-2-methylbenzonitrile] | 12.5 nM | 457 nM | 
Cc1nnc(N[C@H](C)c2cccc(C(C)(F)F)c2F)c2cc(-c3ccc(=O)n(C)c3)c(F)cc12 [Example P-173, (R)-5-(4-((1-(3-(1,1-difluoroethyl)-2-fluorophenyl)ethyl)amino)-7-fluoro-1-methylphthalazin-6-yl)-1-methylpyridin-2(1H)-one] | 8.31 nM | 573 nM | 
Cc1c(C#N)cccc1[C@@H](C)Nc1nnc(C)c2cnc(-c3ccc(=O)n(C)c3)cc12 [Example P-174, (R)-2-methyl-3-(1-((4-methyl-7-(1-methyl-6-oxo-1,6-dihydropyridin-3-yl)pyrido[3,4-d]pyridazin-1-yl)amino)ethyl)benzonitrile] | 43.5 nM | 1330 nM | 
Cc1nnc(N[C@H](C)c2cccc(C(C)(F)F)c2F)c2cc(-c3ccc(=O)n(C)c3)ncc12 [Example P-175, (R)-5-(1-((1-(3-(1,1-difluoroethyl)-2-fluorophenyl)ethyl)amino)-4-methylpyrido[3,4-d]pyridazin-7-yl)-1-methylpyridin-2(1H)-one] | 15.4 nM | 415 nM | 
Cc1c(C#N)cccc1[C@@H](C)Nc1nnc(N2CC[C@H](N(C)C)C2)c2cnc(N3C[C@H]4C[C@@H]3CO4)cc12 [Example P-176, 3-((R)-1-((7-((1R,4R)-2-oxa-5-azabicyclo[2.2.1]heptan-5-yl)-4-((S)-3-(dimethylamino)pyrrolidin-1-yl)pyrido[3,4-d]pyridazin-1-yl)amino)ethyl)-2-methylbenzonitrile] | 0.708 nM | 120 nM | 
Cc1c(C#N)cccc1[C@@H](C)Nc1nnc(N2CC(N)C2)c2cnc(N3C[C@H]4C[C@@H]3CO4)cc12 [Example P-177, 3-((R)-1-((4-(3-aminoazetidin-1-yl)-7-((1R,4R)-2-oxa-5-azabicyclo[2.2.1]heptan-5-yl)pyrido[3,4-d]pyridazin-1-yl)amino)ethyl)-2-methylbenzonitrile] | 0.541 nM | 451 nM | 
Cc1c(C#N)cccc1[C@@H](C)Nc1nnc(C)c2cc(F)c(N(C)[C@@H]3CCN(C)C3)cc12 [Example P-178, 3-((R)-1-((6-fluoro-4-methyl-7-(methyl((R)-1-methylpyrrolidin-3-yl)amino)phthalazin-1-yl)amino)ethyl)-2-methylbenzonitrile] | 1.1 nM | 54.7 nM | 
Cc1c(C#N)cccc1[C@@H](C)Nc1nnc(C)c2cc(F)c(N(C)[C@H]3CCN(C)C3)cc12 [Example P-179, 3-((R)-1-((6-fluoro-4-methyl-7-(methyl((S)-1-methylpyrrolidin-3-yl)amino)phthalazin-1-yl)amino)ethyl)-2-methylbenzonitrile] | 0.714 nM | 84.7 nM | 
Cc1c(C#N)cccc1[C@@H](C)Nc1nnc(N2CC(N(C)C)C2)c2cnc(N3C[C@H]4C[C@@H]3CO4)cc12 [Example P-180, 3-((R)-1-((7-((1R,4R)-2-oxa-5-azabicyclo[2.2.1]heptan-5-yl)-4-(3-(dimethylamino)azetidin-1-yl)pyrido[3,4-d]pyridazin-1-yl)amino)ethyl)-2-methylbenzonitrile] | 0.491 nM | 53.4 nM | 
Cc1nnc(N[C@H](C)c2cccc(C(F)(F)F)c2F)c2cc(N(C)[C@H]3CCN(C)C3)c(F)cc12 [Example P-181, 6-fluoro-N^1-((R)-1-(2-fluoro-3-(trifluoromethyl)phenyl)ethyl)-N7,4-dimethyl-N^7-((S)-1-methylpyrrolidin-3-yl)phthalazine-1,7-diamine] | 0.711 nM | 223 nM | 
Cc1nnc(N[C@H](C)c2cccc3c2OCC3(F)F)c2cc(N3C[C@@H]4C[C@H]3CN4C)ncc12 [Example P-184, N-((R)-1-(3,3-difluoro-2,3-dihydrobenzofuran-7-yl)ethyl)-4-methyl-7-((1S,4S)-5-methyl-2,5-diazabicyclo[2.2.1]heptan-2-yl)pyrido[3,4-d]pyridazin-1-amine formic acid salt] | 1.02 nM |  | 65.7 nM
Cc1c(C#N)cccc1[C@@H](C)Nc1nnc(C)c2cc(C(F)F)c(N3CCN(C)CC3)cc12 [Example P-185, (R)-3-(1-((6-(difluoromethyl)-4-methyl-7-(4-methylpiperazin-1-yl)phthalazin-1-yl)amino)ethyl)-2-methylbenzonitrile formic acid] | 4.95 nM |  | 118 nM
Cc1c(C#N)cccc1[C@@H](C)Nc1nnc(C)c2cc(CF)c(N3CCN(C)CC3)cc12 [Example P-186, (R)-3-(1-((6-(fluoromethyl)-4-methyl-7-(4-methylpiperazin-1-yl)phthalazin-1-yl)amino)ethyl)-2-methylbenzonitrile] | 1.27 nM | 181 nM | 
Cc1c(C#N)cccc1[C@@H](C)Nc1nnc(C)c2c(C)nc(N3CCOCC3)cc12 [Example P-188, (R)-3-(1-((4,5-dimethyl-7-morpholinopyrido[3,4-d]pyridazin-1-yl)amino)ethyl)-2-methylbenzonitrile] | 2.5 nM | 49.1 nM | 
